From ChEMBL document CHEMBL5576145, “Domoic Acid as a Lead for the Discovery of the First Selective Ligand for Kainate Receptor Subtype 5 (GluK5)” (J Med Chem, 2024)
The source made the active and inactive calls. No cut-off for these calls is given here.

Assays:
[1] = molecular target: Glutamate receptor 4 (Rattus norvegicus) (UniProt P19493); assay: Displacement of [3H]-AMPA from AMPA in rat cortical synaptosomes assessed as remaining activity at 10 uM incubated for 30 mins by TopCount microplate scintillation counting method relative to control; type: subcellular; details: Cortex, Synaptosome
[2] = Displacement of [3H]-KA from KA in rat cortical synaptosomes incubated for 60 mins by TopCount microplate scintillation counting method; type: subcellular, Cortex, Synaptosome
[3] = molecular target: Glutamate NMDA receptor (Rattus norvegicus) (UniProt P35439+Q00959+Q00960+Q00961+Q62645+Q8VHN2+Q9R1M7); assay: Displacement of [3H]CGP39653 from NMDA receptor in rat cortical synaptosomes assessed as remaining activity at 10 uM incubated for 60 mins by Topcount microplate scintillation counting method relative to control; type: subcellular; details: Cortex, Synaptosome
[4] = molecular target: Glutamate receptor ionotropic, kainate 2 (Rattus norvegicus, UniProt P42260); assay: Displacement of [3H]-KA from rat GluK2
[5] = molecular target: Glutamate receptor ionotropic, kainate 3 (Rattus norvegicus, UniProt P42264); assay: Displacement of [3H]-KA from rat GluK3
[6] = molecular target: Glutamate receptor ionotropic, kainate 1 (Rattus norvegicus) (UniProt P22756); assay: Displacement of [3H]-NF608 from rat GluK1 assessed as percent of radioligand binding at 10 uM relative to control
[7] = molecular target: T1, Glutamate receptor ionotropic, kainate 5 (Mus musculus, UniProt Q61626); assay: Displacement of [3H]-kainate from mouse GluK5 expressed in Sf9 cell membrane incubated for 2 hrs by scintillation counting method; type: cell membranes
T1 sequence (Q61626 whole entry): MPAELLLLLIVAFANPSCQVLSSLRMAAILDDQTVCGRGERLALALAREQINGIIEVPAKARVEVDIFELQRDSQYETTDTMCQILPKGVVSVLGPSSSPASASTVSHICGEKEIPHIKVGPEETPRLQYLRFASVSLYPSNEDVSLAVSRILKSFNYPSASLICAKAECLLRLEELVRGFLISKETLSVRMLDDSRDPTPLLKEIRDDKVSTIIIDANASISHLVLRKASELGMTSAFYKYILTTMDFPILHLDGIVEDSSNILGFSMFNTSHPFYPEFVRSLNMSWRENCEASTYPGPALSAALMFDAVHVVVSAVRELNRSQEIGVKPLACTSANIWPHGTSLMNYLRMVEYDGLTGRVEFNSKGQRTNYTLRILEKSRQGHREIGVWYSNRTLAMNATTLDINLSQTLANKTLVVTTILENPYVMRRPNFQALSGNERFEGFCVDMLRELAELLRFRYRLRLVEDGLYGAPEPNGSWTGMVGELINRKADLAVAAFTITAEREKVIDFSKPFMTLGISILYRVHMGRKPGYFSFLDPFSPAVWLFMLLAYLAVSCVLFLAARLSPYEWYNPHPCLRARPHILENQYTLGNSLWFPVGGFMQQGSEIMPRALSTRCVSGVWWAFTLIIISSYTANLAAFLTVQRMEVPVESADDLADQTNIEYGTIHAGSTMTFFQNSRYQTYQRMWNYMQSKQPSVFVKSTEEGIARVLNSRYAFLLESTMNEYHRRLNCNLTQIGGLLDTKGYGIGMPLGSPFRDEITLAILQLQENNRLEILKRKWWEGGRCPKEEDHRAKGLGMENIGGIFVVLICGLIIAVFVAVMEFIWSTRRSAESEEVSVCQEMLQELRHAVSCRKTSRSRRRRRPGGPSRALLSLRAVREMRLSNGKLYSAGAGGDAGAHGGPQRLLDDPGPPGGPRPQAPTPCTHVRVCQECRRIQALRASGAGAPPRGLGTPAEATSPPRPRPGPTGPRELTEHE

[8] = molecular target: T2, Ionotropic glutamate receptor kainate 2/5 (Homo sapiens) (UniProt Q16478+Q13002); assay: Agonist activity at GluK2/K5 (unknown origin) expressed in HEK293T cells at 10 uM by electrophysiology; type: cell-based
[9] = molecular target: T2, Ionotropic glutamate receptor kainate 2/5 (Homo sapiens); assay: Antagonist activity at GluK2/K5 (unknown origin) expressed in HEK293T cells preincubated with compound followed by L-Glu stimulation by electrophysiology; type: cell-based
[10] = system: Neuron; assay: Agonist activity at GluK2/K5 in mouse hippocampal neurons assessed as change in holding current at 10 uM by electrophysiology; type: cell-based; details: filed as agonist
[11] = system: Neuron; assay: Agonist activity at GluK2/K5 in mouse hippocampal neurons assessed as change in holding current at 100 uM by electrophysiology; type: cell-based; details: filed as agonist
[12] = molecular target: T3, Glutamate receptor 4 (Rattus norvegicus, UniProt P19493); assay: Displacement of [3H]-AMPA from AMPA in rat synaptic membrane; type: subcellular, Synaptosome
[13] = Displacement of [3H]-Kainic acid from KA in rat synaptic membrane; type: subcellular, Synaptosome
[14] = Binding affinity to KA receptor in rat synaptosomes; type: subcellular, Synaptosome
[15] = molecular target: T3, Glutamate receptor 4; assay: Binding affinity to AMPA receptor in rat synaptosomes; type: subcellular, Synaptosome
[16] = molecular target: Glutamate receptor ionotropic, kainate 1 (Homo sapiens, UniProt P39086); assay: Displacement of [3H](2S, 4R)-4-MeGlu (SYM-2081) from GluK1 (unknown origin)
[17] = molecular target: T4, Glutamate receptor ionotropic, kainate 2 (Homo sapiens, UniProt Q13002); assay: Displacement of [3H](2S, 4R)-4-MeGlu (SYM-2081) from GluK2 (unknown origin)
[18] = system: Hippocampus; assay: Reduction in CA1 spike amplitude in Wistar rat hippocampal slices after 20 mins of toxin administration; type: functional, tissue-based
[19] = molecular target: T3, Glutamate receptor 4; assay: Displacement of [3H]-AMPA from AMPA in rat cortical synaptosomes incubated for 30 mins by TopCount microplate scintillation counting method; type: subcellular, Cortex, Synaptosome
[20] = molecular target: Glutamate NMDA receptor; assay: Displacement of [3H]CGP39653 from NMDA receptor in rat cortical synaptosomes incubated for 60 mins by Topcount microplate scintillation counting method; type: subcellular, Cortex, Synaptosome
[21] = molecular target: Glutamate receptor ionotropic, kainate 1 (Rattus norvegicus, UniProt P22756); assay: Displacement of [3H]-NF608 from rat GluK1
[22] = molecular target: T4, Glutamate receptor ionotropic, kainate 2; assay: Displacement of [3H]-kainic acid from GluR6 (unknown origin) expressed in Sf9 cells membrane; type: cell membranes, Cell membrane
[23] = Selectivity ratio of Ki for displacement of [3H]-NF608 from rat GluK1 to Ki for displacement of [3H]-kainate from mouse GluK5
[24] = Selectivity ratio of Ki for displacement of [3H]-KA from rat GluK2 to Ki for displacement of [3H]-kainate from mouse GluK5
[25] = Selectivity ratio of Ki for displacement of [3H]-KA from rat GluK3 to Ki for displacement of [3H]-kainate from mouse GluK5
[26] = molecular target: Glutamate receptor ionotropic, kainate 2 (Rattus norvegicus) (UniProt P42260); assay: Displacement of [3H]-KA from rat GluK2 assessed as percentage of radioligand binding at 10 uM relative to control
[27] = molecular target: Glutamate receptor ionotropic, kainate 3 (Rattus norvegicus) (UniProt P42264); assay: Displacement of [3H]-KA from rat GluK3 assessed as percentage of radioligand binding at 10 uM relative to control
[28] = molecular target: T3, Glutamate receptor 4; assay: Displacement of [3H]-AMPA from AMPA in rat brain membrane preincubated for 15 mins followed by [3H]-AMPA addition and measured after 40 mins by scintillation counting method; type: cell membranes
[29] = Displacement of [3H]-Kainic acid from KA in rat brain membrane preincubated for 15 mins followed by [3H]-Kainic acid addition and measured after 1 hr by scintillation counting method; type: cell membranes
[30] = species on record: Rattus norvegicus; assay: Displacement of [3H]-KA from KA in rat cortical synaptosomes assessed as remaining activity at 10 uM incubated for 60 mins by TopCount microplate scintillation counting method relative to control; type: subcellular; details: Cortex, Synaptosome
[31] = molecular target: T5, Glutamate receptor ionotropic, kainate 5 (Mus musculus) (UniProt Q61626); assay: Displacement of [3H]-kainate from mouse GluK5 expressed in Sf9 cell membrane assessed as remaining activity at 10 uM incubated for 2 hrs by scintillation counting method relative to control; type: cell membranes
T5 sequence (whole entry): T1 sequence (Q61626 whole entry)

Glutamate receptor ionotropic, kainate 2 (Rattus norvegicus, UniProt P42260), sequence (P42260 whole entry): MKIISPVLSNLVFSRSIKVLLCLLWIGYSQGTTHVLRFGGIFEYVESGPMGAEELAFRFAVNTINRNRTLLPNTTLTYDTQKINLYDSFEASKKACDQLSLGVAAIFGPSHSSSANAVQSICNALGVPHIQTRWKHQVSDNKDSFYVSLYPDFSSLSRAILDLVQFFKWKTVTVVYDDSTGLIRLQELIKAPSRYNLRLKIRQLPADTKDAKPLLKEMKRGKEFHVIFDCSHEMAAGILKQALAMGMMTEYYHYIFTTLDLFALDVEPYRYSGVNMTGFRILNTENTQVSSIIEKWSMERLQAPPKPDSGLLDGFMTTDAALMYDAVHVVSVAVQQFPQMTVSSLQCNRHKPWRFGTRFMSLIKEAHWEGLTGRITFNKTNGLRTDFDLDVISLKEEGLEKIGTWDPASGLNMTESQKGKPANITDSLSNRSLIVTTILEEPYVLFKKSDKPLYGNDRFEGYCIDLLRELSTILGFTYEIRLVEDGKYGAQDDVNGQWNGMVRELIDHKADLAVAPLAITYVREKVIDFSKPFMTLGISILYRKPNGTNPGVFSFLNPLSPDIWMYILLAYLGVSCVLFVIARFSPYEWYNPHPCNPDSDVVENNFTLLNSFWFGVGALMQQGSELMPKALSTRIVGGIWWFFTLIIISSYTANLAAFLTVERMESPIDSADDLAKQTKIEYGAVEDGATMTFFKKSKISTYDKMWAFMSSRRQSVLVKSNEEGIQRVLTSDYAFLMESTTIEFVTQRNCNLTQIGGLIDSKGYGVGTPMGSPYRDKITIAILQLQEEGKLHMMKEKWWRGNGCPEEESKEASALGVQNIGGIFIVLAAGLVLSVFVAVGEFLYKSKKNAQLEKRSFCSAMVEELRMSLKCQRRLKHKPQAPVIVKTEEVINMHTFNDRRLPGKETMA
T3 sequence (P19493 whole entry): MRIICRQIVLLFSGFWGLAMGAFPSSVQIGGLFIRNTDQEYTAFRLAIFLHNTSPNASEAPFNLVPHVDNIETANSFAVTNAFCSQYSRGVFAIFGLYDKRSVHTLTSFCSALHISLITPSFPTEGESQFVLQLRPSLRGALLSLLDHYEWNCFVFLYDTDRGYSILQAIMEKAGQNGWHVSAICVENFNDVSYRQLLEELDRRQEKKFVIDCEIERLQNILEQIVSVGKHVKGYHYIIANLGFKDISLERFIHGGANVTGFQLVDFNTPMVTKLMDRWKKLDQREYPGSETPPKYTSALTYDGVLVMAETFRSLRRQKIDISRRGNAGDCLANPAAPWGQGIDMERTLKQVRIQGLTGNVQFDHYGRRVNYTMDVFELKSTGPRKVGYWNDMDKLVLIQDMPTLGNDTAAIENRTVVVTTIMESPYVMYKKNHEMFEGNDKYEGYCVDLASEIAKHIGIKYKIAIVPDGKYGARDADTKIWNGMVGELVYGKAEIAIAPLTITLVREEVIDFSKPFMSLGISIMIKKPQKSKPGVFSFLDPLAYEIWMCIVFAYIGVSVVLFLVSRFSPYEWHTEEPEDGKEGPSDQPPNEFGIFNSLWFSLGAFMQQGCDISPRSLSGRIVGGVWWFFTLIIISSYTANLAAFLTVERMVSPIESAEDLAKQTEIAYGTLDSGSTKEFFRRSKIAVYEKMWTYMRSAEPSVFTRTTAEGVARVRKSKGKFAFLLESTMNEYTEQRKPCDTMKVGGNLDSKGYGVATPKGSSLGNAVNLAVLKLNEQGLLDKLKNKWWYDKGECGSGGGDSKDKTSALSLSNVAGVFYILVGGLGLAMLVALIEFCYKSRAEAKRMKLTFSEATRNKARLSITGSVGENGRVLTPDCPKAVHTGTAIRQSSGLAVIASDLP
Glutamate receptor 4 (Rattus norvegicus), sequence (P19493 whole entry): as above
Glutamate receptor ionotropic, kainate 1 (Rattus norvegicus, UniProt P22756), sequence (P22756 whole entry): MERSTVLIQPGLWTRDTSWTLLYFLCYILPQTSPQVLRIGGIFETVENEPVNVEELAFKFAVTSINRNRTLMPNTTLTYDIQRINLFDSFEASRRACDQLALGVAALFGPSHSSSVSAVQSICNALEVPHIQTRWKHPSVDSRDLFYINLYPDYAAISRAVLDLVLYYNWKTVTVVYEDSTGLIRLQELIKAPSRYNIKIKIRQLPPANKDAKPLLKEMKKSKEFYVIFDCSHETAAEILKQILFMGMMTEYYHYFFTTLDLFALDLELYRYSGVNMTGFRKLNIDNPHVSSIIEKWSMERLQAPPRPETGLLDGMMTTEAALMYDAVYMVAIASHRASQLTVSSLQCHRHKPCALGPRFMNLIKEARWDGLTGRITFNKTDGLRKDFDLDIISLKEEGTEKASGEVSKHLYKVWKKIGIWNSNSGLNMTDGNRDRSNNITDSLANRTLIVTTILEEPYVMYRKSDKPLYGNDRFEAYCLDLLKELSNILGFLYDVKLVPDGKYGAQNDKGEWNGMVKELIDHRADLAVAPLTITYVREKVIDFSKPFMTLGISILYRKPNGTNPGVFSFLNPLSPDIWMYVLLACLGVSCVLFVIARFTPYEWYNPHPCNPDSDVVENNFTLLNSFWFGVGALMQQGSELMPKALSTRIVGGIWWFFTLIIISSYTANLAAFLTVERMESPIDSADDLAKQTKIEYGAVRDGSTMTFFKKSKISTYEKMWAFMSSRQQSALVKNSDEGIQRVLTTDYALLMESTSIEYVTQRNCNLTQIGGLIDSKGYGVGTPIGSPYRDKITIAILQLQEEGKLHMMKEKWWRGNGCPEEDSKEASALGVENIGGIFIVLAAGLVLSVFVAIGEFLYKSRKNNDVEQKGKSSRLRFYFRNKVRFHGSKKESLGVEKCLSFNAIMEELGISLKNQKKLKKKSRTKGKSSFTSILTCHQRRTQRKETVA
Glutamate receptor ionotropic, kainate 1 (Rattus norvegicus), sequence (P22756 whole entry): as above
Glutamate receptor ionotropic, kainate 3, sequence (P42264 whole entry): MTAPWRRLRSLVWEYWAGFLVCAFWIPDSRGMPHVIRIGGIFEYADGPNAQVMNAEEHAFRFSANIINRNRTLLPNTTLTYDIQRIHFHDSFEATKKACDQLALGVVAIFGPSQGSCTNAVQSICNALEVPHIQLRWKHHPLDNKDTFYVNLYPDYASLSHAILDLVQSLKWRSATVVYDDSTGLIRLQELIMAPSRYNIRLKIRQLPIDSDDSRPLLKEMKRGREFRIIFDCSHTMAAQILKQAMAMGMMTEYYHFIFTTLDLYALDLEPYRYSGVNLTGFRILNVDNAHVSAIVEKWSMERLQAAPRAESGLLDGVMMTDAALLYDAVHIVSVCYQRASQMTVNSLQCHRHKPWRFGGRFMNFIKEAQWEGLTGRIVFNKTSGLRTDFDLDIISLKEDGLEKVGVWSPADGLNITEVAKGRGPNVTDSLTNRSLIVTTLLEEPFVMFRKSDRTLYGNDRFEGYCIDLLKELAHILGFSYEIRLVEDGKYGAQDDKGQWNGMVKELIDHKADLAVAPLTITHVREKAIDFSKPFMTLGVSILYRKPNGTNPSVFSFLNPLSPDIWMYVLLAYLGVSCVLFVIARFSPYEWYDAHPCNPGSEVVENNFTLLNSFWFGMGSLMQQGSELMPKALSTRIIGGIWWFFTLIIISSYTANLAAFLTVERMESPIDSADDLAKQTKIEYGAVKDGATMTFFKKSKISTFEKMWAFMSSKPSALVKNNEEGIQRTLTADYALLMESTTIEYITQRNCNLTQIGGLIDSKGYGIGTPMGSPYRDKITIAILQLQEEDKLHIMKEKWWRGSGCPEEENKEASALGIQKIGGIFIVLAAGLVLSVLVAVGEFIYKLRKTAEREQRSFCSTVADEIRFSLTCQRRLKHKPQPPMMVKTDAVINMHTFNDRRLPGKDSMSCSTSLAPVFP
T4 sequence (Q13002 whole entry): as the sequence (P42260 whole entry) above, with S5F, V7I, L11P, S14R, S16T, I17V, V19L, V494A counted along it
Glutamate receptor ionotropic, kainate 2 (Rattus norvegicus), sequence (P42260 whole entry): as the sequence (P42260 whole entry) above
Glutamate receptor ionotropic, kainate 3 (Rattus norvegicus), sequence (P42264 whole entry): as the sequence (P42264 whole entry) above
Glutamate receptor ionotropic, kainate 1 (Homo sapiens, UniProt P39086), sequence (P39086 whole entry): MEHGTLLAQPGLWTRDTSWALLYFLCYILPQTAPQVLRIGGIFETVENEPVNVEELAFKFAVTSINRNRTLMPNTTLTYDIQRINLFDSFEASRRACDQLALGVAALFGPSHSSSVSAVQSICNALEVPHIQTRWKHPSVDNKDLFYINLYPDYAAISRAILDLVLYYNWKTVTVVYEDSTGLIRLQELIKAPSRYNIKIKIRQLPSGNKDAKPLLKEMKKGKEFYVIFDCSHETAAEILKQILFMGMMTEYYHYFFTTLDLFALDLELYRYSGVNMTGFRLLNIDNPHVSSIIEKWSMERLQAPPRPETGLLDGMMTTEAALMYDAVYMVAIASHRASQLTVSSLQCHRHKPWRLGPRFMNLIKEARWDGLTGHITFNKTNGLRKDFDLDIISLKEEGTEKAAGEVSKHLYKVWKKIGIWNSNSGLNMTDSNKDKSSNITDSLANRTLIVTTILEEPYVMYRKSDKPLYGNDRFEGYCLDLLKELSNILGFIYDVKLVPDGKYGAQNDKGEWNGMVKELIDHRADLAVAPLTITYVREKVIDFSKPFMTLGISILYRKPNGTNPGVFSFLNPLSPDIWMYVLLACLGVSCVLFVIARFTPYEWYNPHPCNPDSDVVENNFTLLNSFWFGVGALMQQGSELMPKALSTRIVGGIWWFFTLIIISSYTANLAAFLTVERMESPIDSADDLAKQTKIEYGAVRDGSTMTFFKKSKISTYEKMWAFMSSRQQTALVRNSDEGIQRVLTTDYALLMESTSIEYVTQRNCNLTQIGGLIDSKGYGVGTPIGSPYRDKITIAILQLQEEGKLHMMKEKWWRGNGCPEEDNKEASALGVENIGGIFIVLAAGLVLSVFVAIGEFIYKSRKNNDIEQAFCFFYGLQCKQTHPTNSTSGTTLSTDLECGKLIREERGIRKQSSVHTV

## O=C(O)C[C@@H]1[C@@H](C(=O)O)NC[C@@H]1n1nncc1-c1ccc2cc(O)ccc2c1
[1]
  Activity: 90%
[2]
  IC50: 4.4 µM
[3]
  Activity: 99%
[4]
  Ki: 70 µM
[5]
  Ki: 17.9 µM
[6]
  Activity: 90%
[7]
  Ki: 432 nM
[8]
  Activity: inactive
[9]
  Activity: inactive
[10]
  Activity: 56 pA
[11]
  Activity: 148 pA

## C/C(=C/C=C/[C@@H](C)C(=O)O)[C@H]1CN[C@H](C(=O)O)[C@H]1CC(=O)O [DOMOIC ACID]
[12]
  IC50: 470 nM
[13]
  IC50: 4 nM
[14]
  IC50: 15 nM
[15]
  IC50: 9 µM
[16]
  Ki: 1.11 nM
[17]
  Ki: 6.04 nM
[18]
  EC50: 228 nM

## C=C(CC/C=C(\C)C(=O)O)[C@H]1CN[C@H](C(=O)O)[C@H]1CC(=O)O
[18]
  EC50: 3710 nM

## O=C(O)CCc1cn([C@H]2CN[C@H](C(=O)O)[C@H]2CC(=O)O)nn1
[19]
  IC50: > 100 µM
[2]
  IC50: > 100 µM
[20]
  Ki: > 100 µM
[21]
  Ki: > 100 µM
[4]
  Ki: > 100 µM
[5]
  Ki: > 100 µM

## C/C(=C/C/C=C(\C)C(=O)O)[C@H]1CN[C@H](C(=O)O)[C@H]1CC(=O)O
[22]
  Ki: 130 nM
[18]
  EC50: 887 nM

## O=C(O)C[C@@H]1[C@@H](C(=O)O)NC[C@@H]1n1nncc1-c1ccccc1
[1]
  Activity: 80%
[2]
  IC50: 5.1 µM
[3]
  Activity: 101%
[4]
  Ki: 36 µM
[5]
  Ki: 21.1 µM
[6]
  Activity: 93%
[7]
  Ki: 499 nM
[23]
  Ratio Ki: > 40
[24]
  Ratio Ki: > 40
[25]
  Ratio Ki: > 40

## Cc1nc([C@H]2CN[C@H](C(=O)O)[C@H]2CC(=O)O)cs1
[14]
  IC50: 6 nM

## Nc1nc([C@H]2CN[C@H](C(=O)O)[C@H]2CC(=O)O)cs1
[14]
  IC50: 5 nM

## O=C(O)C[C@@H]1[C@@H](C(=O)O)NC[C@@H]1n1nncc1-c1cccc(C(F)(F)F)c1
[1]
  Activity: 80%
[2]
  IC50: 5.1 µM
[20]
  Ki: 101 µM
[6]
  Activity: 92%
[26]
  Activity: 76%
[27]
  Activity: 90%
[7]
  Ki: 2150 nM

## CC(CCc1cnnn1[C@H]1CN[C@H](C(=O)O)[C@H]1CC(=O)O)C(=O)O (some centres not stated)
[1]
  Activity: 73%
[2]
  IC50: 1.73 µM
[3]
  Activity: 102%
[21]
  Ki: 11.7 µM
[4]
  Ki: 8.66 µM
[5]
  Ki: 5.9 µM
[7]
  Ki: 420 nM
[23]
  Ratio Ki: 14
[24]
  Ratio Ki: 14
[25]
  Ratio Ki: 14

## C/C(=C\C=C/[C@@H](C)C(=O)O)[C@H]1CN[C@H](C(=O)O)[C@H]1CC(=O)O
[10]
  Activity: 2940 pA
[28]
  IC50: 32 µM
[29]
  IC50: 1400 nM

## O=C(O)C[C@@H]1[C@@H](C(=O)O)NC[C@@H]1n1ccnn1
[19]
  IC50: 9.5 µM
[2]
  IC50: 1.3 µM
[20]
  Ki: > 100 µM
[21]
  Ki: 3.3 µM
[4]
  Ki: 2.6 µM
[5]
  Ki: 0.28 µM

## NCc1cnnn1[C@H]1CN[C@H](C(=O)O)[C@H]1CC(=O)O
[1]
  Activity: 100%
[30]
  Activity: 76%
[3]
  Activity: 92%
[6]
  Activity: 95%
[26]
  Activity: 79%
[27]
  Activity: 81%
[31]
  Activity: 85%
